{"source": "patent US20040259764A1", "about": "“Reticulocyte depletion signatures” (priority 2002, published 2004)", "key": {"[1]": {"test_system": "two specific reticulocyte-enriched transcripts", "protocol": "(§1) After determination of the MTD and FED for a compound, each compound was dissolved in a vehicle for administration on day 1 of the study (additional daily doses were stored as frozen aliquots from this initial formulation). Each compound was administered to three individual male Sprague-Dawley rats for each of the two doses (MTD and FED) for one of four different times (0.25 day, 1 day, 3 days, and 5 days), yielding a total of up to 24 animals per compound study. Vehicle choice was based on solubility of the compound, effect of food on adsorption, and the vehicles used in the literature reports examined during the FED selection investigations, described above. Generally, the route and vehicle in which the FED was defined are used. When there was a choice of routes and vehicles, oral routes were chosen over injection routes. Many compounds, especially oncolytics, are only administerable intravenously. In such cases, the compound was administered as an intravenous formulation into the tail vein. Orally administered compounds were given dissolved in either water, 1% carboxymethycellulose (CMC) or corn oil. Intravenously and intraperitoneally administered compounds were given in 0.9% saline. Subcutaneously administered compounds were given in corn oil. Animal body weights were determined at 1 day and, where appropriate, at 4 days, before necropsy, and clinical observations were made on a daily basis. Control animals were dosed with vehicle only. Three male animals were used for each dose and time combination used for the compound treatment.\n(§2) Tissue harvest and handling: After the allocated treatment time, the tissues from the animals were harvested. […] All the tissues collected were divided to provide samples for histopathological analyses, and the remainder of each tissue was then snap-frozen.\n(§3) Preparation of enriched mRNA: Punch biopsies were taken from the frozen tissues and were completely homogenized before being processed using the MagNA Pure robot. (Roche Diagnostics Corp., Indianapolis, Ind.) in combination with the MagNA Pure LC RNA Isolation kit II (Roche Diagnostics Corp). The amount of lysis buffer was adjusted to allow 1 ml per 50 mg for liver tissue, or 1 ml per 80 mg for all other tissues. After complete homogenization and before loading of the samples into the 32-well MagNA Pure plate, the samples were syringed 5-6 times using a 20-gauge 3-ml syringe to ensure a smooth solution for robotic processing. Tissue sample processing was performed in duplicate wells (loading 150 μl of homogenized sample and 150 μl of additional lysis buffere to each well) of the MagNA Pure LC, which is programmed to extract mRNA using oligo-dT selection technology into a final elution volume of 100 μl. Poly A(+) RNA sample concentration was performed using a standard ethanol precipitation protocol in the presence of glycogen (50 μg/ml). After precipitation the final purified mRNA sample was resuspended in 7 μl DEPC-treated water and quantified using a Ribogreen high-range assay (Molecular Probes) on the Victor-Wallace II Fluorometer (Perkin-Elmer). Additionally, the integrity of each mRNA sample was determined using the Agilent 2100 BioAnalyzer (Agilent Technologies, Palo Alto, Calif.) in combination with the RNA 6000 Nano Lab Chip kit (Agilent Technologies).\n0.6-20 μg of enriched mRNA from different tissue sources was processed into cRNA in the presence of different bacterial control mRNAs (1.5pg FixA, 5pgYjek, 5pg AraB, 15pg EntF, 50pg FixB, 150pg HisB, 500pg LeuB, 1500pg Gnd) and with the modification of the addition of 1.0 μl of 100 pmol/μl HPLC-purified T7-(dT)24 oligonucleotide primer instead of a 0.5 pmol/μl unpurified T7-(dT)24 primer.\nThe slides were rinsed in distilled, deionized water (dd-H2O) with 0.05% Tween-20® twice for 5 seconds each before they were dried by centrifugation and stored in light protective slide boxes."}, "[2]": {"test_system": "Reticulocyte Depletion Signature (Alas2 and peripherin probes), liver", "excerpt": "(§4) Compound dosing was based on the acute dose LD50s recorded in published reference or literature sources. […] The MTD (maximum tolerated dose) was then selected as the dose at which the animals […] 5-10% body weight during the 5-day range finding study. […] In addition, the clinical observations must show no or mild clinical signs during the whole of the range-finding study. At the next highest dose, signs and symptoms of adverse effects and exceeding those of the MTD should be seen to occur. Should these criteria not be met, the range-finding study is repeated using a modified dose range.\nas §1, §2\nas §3, with “(Perkin-Elmer).” for “(Perkin-Elmer). Additionally, the integrity of each mRNA sample was determined using the Agilent 2100 BioAnalyzer (Agilent Technologies, Palo Alto, Calif.) in combination with the RNA 6000 Nano Lab Chip kit (Agilent Technologies).”"}, "[3]": {"test_system": "Reticulocyte Depletion Signature (Alas2 and peripherin probes), bone marrow", "excerpt": "as §4, §1, §2\nas §3, with “(Perkin-Elmer).” for “(Perkin-Elmer). Additionally, the integrity of each mRNA sample was determined using the Agilent 2100 BioAnalyzer (Agilent Technologies, Palo Alto, Calif.) in combination with the RNA 6000 Nano Lab Chip kit (Agilent Technologies).”"}, "[4]": {"test_system": "Reticulocyte Depletion Signature (Alas2 and peripherin probes), spleen", "excerpt": "as §4, §1, §2\nas §3, with “(Perkin-Elmer).” for “(Perkin-Elmer). Additionally, the integrity of each mRNA sample was determined using the Agilent 2100 BioAnalyzer (Agilent Technologies, Palo Alto, Calif.) in combination with the RNA 6000 Nano Lab Chip kit (Agilent Technologies).”"}, "[5]": {"details": "rat liver, dose, route and vehicle per compound as"}, "[6]": {"details": "liver data, highest training treatment normalised to 100, * = p < 0.01"}, "[7]": {"details": "bone marrow data, signature derived from liver, * = p < 0.01"}, "[8]": {"details": "spleen data, signature derived from liver, * = p < 0.01"}}, "note": "Like-named read-outs stand apart in the source and are kept apart here. Marks after values point to notes of the source that are not given here.", "data": [{"smiles": "Cn1cnc([N+](=O)[O-])c1Sc1ncnc2nc[nH]c12", "note": "[AZATHIOPRINE, 6-((1-methyl-4-nitro-1H-imidazol-5-yl)thio)-1H-purine]", "values": [{"measurement": "signal intensity for two specific reticulocyte-enriched transcripts as compared with vehicle-treated control animals", "setting": "[1]; rat, in vivo", "value": "significantly decreased"}, {"measurement": "Signature Projection Score (SPS)", "setting": "[2]; rat, in vivo", "value": "90*"}, {"measurement": "SPS (Bone Marrow)", "setting": "[3]; rat, in vivo", "value": 27}, {"measurement": "SPS (Spleen)", "setting": "[4]; rat, in vivo", "value": "122*"}]}, {"smiles": "Nc1ccn([C@@H]2O[C@H](CO)[C@@H](O)[C@@H]2O)c(=O)n1", "note": "[CYTARABINE, 4-amino-1-β-D-arabinofuranosyl-2(1H)-pyrimidinone]", "values": [{"measurement": "signal intensity for two specific reticulocyte-enriched transcripts as compared with vehicle-treated control animals", "setting": "[1]; rat, in vivo", "value": "significantly decreased"}, {"measurement": "Signature Projection Score (SPS)", "setting": "[2]; rat, in vivo", "value": "58*"}, {"measurement": "SPS (Bone Marrow)", "setting": "[3]; rat, in vivo", "value": 0}, {"measurement": "SPS (Spleen)", "setting": "[4]; rat, in vivo", "value": 17}]}, {"smiles": "COc1cccc2c1C(=O)c1c(O)c3c(c(O)c1C2=O)C[C@@](O)(C(=O)CO)C[C@@H]3O[C@H]1C[C@H](N)[C@H](O)[C@H](C)O1", "note": "[DOXORUBICIN, (8S-cis)-10-((3-amino-2,3,6-trideoxy-γ-L-lyxo-hexopyranosyl)oxy)-7,8,9,10-tetrahydro-6,8,11-trihydroxy-8-(hydroxyacetyl)-1-methoxy-5,12-naphthacene-dione]", "values": [{"measurement": "signal intensity for two specific reticulocyte-enriched transcripts as compared with vehicle-treated control animals", "setting": "[1]; rat, in vivo", "value": "significantly decreased"}, {"measurement": "Signature Projection Score (SPS)", "setting": "[2]; rat, in vivo", "value": "95*"}, {"measurement": "SPS (Bone Marrow)", "setting": "[3]; rat, in vivo", "value": 0}, {"measurement": "SPS (Spleen)", "setting": "[4]; rat, in vivo", "value": "138*"}]}, {"smiles": "COc1cc([C@@H]2c3cc4c(cc3[C@@H](O[C@@H]3O[C@@H]5CO[C@@H](C)O[C@H]5[C@H](O)[C@H]3O)[C@H]3COC(=O)[C@H]23)OCO4)cc(OC)c1O", "note": "[ETOPOSIDE, 9-((4,6-0-ethylidene-β-D-glucopyranosyl)oxy)-5,8,8a,9-tetrahydro-5-(4-hydroxy-3,5,-dimethoxyphenyl)furo[3′,4′:6,7]naphtha[2,3-d]-1,3-dioxol-6(5acH)-one]", "values": [{"measurement": "signal intensity for two specific reticulocyte-enriched transcripts as compared with vehicle-treated control animals", "setting": "[1]; rat, in vivo", "value": "significantly decreased"}, {"measurement": "Signature Projection Score (SPS)", "setting": "[2]; rat, in vivo", "value": "100*"}, {"measurement": "SPS (Bone Marrow)", "setting": "[3]; rat, in vivo", "value": "151*"}, {"measurement": "SPS (Spleen)", "setting": "[4]; rat, in vivo", "value": "146*"}]}, {"smiles": "NC(=O)NO", "note": "[HYDROXYUREA, Hydroxyurea]", "values": [{"measurement": "signal intensity for two specific reticulocyte-enriched transcripts as compared with vehicle-treated control animals", "setting": "[1]; [5]", "value": "significantly decreased"}, {"measurement": "Signature Projection Score (SPS)", "setting": "[2]; [6]", "value": "71*"}, {"measurement": "SPS (Bone Marrow)", "setting": "[3]; [7]", "value": 0}, {"measurement": "SPS (Spleen)", "setting": "[4]; [8]", "value": "130*"}]}, {"smiles": "O=P1(NCCCl)OCCCN1CCCl", "note": "(centres unmarked) [IFOSFAMIDE, N,3-bis(2-chloroethyl)tetrahydro-2H-1,3,2-oxazaphosphorin-2-amine 2-oxide]", "values": [{"measurement": "signal intensity for two specific reticulocyte-enriched transcripts as compared with vehicle-treated control animals", "setting": "[1]; [5]", "value": "significantly decreased"}, {"measurement": "Signature Projection Score (SPS)", "setting": "[2]; [6]", "value": "95*"}, {"measurement": "SPS (Bone Marrow)", "setting": "[3]; [7]", "value": 27}, {"measurement": "SPS (Spleen)", "setting": "[4]; [8]", "value": 24}]}, {"smiles": "Nc1nc2nc[nH]c2c(=S)[nH]1", "note": "[THIOGUANINE, 2-amino-1,7-dihydro-6H-purine-6-thione]", "values": [{"measurement": "signal intensity for two specific reticulocyte-enriched transcripts as compared with vehicle-treated control animals", "setting": "[1]; rat, in vivo", "value": "significantly decreased"}, {"measurement": "Signature Projection Score (SPS)", "setting": "[2]; rat, in vivo", "value": "99*"}, {"measurement": "SPS (Bone Marrow)", "setting": "[3]; rat, in vivo", "value": 40}, {"measurement": "SPS (Spleen)", "setting": "[4]; rat, in vivo", "value": "121*"}]}, {"smiles": "CCCSc1ccc2nc(NC(=O)OC)[nH]c2c1", "note": "[albendazole, (5-(propylthio)-1H-benzimidazol-2yl)-carbamic acid methyl ester]", "values": [{"measurement": "signal intensity for two specific reticulocyte-enriched transcripts as compared with vehicle-treated control animals", "setting": "[1]; [5]", "value": "significantly decreased"}]}]}
